Columns and labels:
Experiment in all cases: cells
NCM460 cells = format: cell-based; settings: Homo sapiens, NCM460, read-out: IC50 (μM) ± SD (μM), NCM460
HCT-116 cells = format: cell-based, human
DLD1 cells = format: cell-based; settings: Homo sapiens, DLD-1, read-out: IC50 (μM) ± SD (μM), DLD1
RKO cells = format: cell-based; settings: Homo sapiens, read-out: IC50 (μM) ± SD (μM), RKO

`CC(=O)OC[C@H]1OC(OC(C)=O)[C@H](n2cc(C(=O)NC3([As](O)O)C=CC=CC3)nn2)[C@@H](OC(C)=O)[C@@H]1OC(C)=O` (stereo partly drawn) [Compound 8, 1-(1-(1,3,4,6-tetra-O-acetyl-2-deoxy-D-glucopyranos-2-yl) -1H-1,2,3-triazole-4-carboxamido)phenyl arsonous acid] showed an IC50 (NCM460 cells) of 16.1 ± 2.21 µM, a Selectivity index (HCT-116 cells) of 0.91 and an IC50 (HCT-116 cells; Homo sapiens, HCT-116, read-out: IC50 (μM) ± SD (μM), HCT-116) of 17.7 ± 1.44 µM. It also gave an IC50 (DLD1 cells) of 15 ± 2.72 µM and an IC50 (RKO cells) of 4.57 ± 0.17 µM.

Source: article PMC9091416 (RSC Advances, 2018)
